Legend:
Settings in all cases: at 10 µM
[1] = target: T1, Alpha-1A adrenergic receptor (Homo sapiens) (UniProt P35348); experiment: Selectivity interaction (GPCR panel (PDSP screen)) EUB0001079a ADRA1A
T1 sequence (whole entry): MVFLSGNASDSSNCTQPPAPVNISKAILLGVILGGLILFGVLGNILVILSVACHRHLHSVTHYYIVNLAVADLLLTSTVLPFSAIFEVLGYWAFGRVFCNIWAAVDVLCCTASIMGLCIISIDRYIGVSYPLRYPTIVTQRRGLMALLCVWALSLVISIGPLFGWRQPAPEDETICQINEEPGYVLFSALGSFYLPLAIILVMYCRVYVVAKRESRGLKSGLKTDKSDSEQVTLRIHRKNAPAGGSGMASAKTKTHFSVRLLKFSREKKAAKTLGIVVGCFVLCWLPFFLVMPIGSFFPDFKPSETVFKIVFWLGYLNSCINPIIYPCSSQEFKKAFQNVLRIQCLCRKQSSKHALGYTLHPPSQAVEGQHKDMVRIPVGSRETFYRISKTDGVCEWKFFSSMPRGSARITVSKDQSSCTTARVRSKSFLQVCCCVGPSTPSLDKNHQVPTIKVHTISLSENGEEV

[2] = target: T2, Interleukin-1 receptor-associated kinase 3 (Homo sapiens) (UniProt Q9Y616); experiment: Selectivity interaction (KinomeScan (DiscoverX)) EUB0000607a IRAK3
T2 sequence (whole entry): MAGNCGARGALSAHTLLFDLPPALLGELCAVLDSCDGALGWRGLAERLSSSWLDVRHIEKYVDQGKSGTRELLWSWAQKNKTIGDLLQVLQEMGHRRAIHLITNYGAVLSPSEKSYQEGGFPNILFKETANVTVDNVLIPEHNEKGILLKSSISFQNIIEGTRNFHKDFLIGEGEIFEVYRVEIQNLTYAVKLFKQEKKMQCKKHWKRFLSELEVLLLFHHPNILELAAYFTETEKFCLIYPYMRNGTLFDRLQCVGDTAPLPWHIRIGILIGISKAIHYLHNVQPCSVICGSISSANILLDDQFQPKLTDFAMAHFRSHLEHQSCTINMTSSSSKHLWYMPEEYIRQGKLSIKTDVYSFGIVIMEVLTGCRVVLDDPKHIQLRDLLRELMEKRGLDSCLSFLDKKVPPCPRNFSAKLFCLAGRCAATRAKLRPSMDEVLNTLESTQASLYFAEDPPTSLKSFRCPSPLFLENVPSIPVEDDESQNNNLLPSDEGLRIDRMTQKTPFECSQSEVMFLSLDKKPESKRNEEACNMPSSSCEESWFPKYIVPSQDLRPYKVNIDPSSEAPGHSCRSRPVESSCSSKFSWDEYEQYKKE

[3] = target: T3, Ephrin type-B receptor 3 (Homo sapiens) (UniProt P54753); experiment: Selectivity interaction (KinomeScan (DiscoverX)) EUB0000607a EPHB3
T3 sequence (whole entry): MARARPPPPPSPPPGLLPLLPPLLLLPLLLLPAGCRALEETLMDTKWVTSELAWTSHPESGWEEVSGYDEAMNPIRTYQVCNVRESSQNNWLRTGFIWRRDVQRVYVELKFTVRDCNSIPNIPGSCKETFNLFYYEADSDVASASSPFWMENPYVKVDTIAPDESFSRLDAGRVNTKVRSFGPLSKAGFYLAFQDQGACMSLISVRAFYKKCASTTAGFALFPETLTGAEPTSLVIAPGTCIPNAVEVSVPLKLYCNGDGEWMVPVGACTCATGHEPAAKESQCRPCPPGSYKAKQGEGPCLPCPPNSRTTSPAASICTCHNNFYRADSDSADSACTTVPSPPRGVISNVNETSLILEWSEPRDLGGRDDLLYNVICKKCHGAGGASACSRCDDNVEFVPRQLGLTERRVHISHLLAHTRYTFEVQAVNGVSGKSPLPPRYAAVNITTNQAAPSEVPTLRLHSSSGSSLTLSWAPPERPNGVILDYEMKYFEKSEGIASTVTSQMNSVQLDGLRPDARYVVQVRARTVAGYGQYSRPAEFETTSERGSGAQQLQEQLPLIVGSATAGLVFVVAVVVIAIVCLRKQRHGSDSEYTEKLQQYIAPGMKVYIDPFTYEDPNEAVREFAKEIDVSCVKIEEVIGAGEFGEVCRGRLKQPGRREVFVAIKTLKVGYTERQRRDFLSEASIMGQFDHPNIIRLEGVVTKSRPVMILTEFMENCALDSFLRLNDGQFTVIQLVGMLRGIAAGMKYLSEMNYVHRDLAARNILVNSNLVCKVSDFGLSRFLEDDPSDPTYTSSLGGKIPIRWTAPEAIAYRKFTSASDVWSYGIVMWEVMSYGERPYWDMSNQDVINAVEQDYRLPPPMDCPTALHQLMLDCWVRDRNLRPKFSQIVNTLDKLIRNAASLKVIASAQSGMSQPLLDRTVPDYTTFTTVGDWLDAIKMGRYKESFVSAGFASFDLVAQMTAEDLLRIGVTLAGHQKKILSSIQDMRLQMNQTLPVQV

[4] = target: T4, Serine/threonine-protein kinase D2 (Homo sapiens) (UniProt Q9BZL6); experiment: Selectivity interaction (KinomeScan (DiscoverX)) EUB0000595a PRKD2
T4 sequence (whole entry): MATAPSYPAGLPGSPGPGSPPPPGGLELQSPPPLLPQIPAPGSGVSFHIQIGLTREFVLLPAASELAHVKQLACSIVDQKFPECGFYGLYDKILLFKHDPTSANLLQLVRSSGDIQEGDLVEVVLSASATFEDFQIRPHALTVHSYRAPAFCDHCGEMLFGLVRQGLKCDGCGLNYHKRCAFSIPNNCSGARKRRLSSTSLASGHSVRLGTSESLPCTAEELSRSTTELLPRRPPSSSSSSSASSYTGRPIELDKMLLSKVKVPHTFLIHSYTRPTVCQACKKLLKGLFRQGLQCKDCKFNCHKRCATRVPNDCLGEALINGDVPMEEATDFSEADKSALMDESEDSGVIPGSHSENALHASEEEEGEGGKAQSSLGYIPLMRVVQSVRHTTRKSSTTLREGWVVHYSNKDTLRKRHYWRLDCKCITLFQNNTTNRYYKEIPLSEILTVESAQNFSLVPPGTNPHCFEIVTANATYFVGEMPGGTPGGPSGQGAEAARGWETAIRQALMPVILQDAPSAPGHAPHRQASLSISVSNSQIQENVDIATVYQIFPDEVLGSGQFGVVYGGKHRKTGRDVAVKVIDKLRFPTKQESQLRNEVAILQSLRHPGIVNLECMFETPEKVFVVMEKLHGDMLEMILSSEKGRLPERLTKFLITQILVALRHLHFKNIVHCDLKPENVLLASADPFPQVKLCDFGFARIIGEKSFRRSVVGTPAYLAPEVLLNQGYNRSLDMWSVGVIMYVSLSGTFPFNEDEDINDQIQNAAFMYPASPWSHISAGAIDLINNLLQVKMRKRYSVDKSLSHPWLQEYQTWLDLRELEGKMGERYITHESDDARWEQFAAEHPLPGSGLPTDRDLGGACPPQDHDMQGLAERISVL

SMILES: Nc1cnc(N2CCc3cc(S(=O)(=O)Nc4c(F)cc(Cl)cc4F)cc(N4CCCC4=O)c32)nc1 [TP-020n]
- % of inhibition [1]: -15.7%

SMILES: CNC(=O)Nc1ccc(-c2nc(N3CC4CCC(C3)O4)c3cnn(C4CCC5(CC4)OCCO5)c3n2)cc1
- % of control [2]: 100%
- % of control [3]: 92%

SMILES: COCC(=O)NC/C=C/c1ccc2ncnc(Nc3ccc(Oc4ccc(C)nc4)c(C)c3)c2c1 [CP-724714]
- % of control [4]: 97%
